Assay results taken from patent US20110318768A1, “METHOD FOR DETERMINING SENSITIVITY OF TUMOR CELLS TO TYROSINE KINASE INHIBITOR AND COMPUTER PROGRAM PRODUCT” (SYSMEX CORPORATION, priority 2010, published 2011).

Legend:
[1] = system: tyrosine kinase in cell membrane fraction of CAMA-1; test: Tyrosine kinase activity inhibition rate in cell membrane fraction (Poly-Glu4-Tyr substrate); assay type: biochemical
Procedure, shortened: (§1)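 Memb. fraction (1% NP-40 solubilized) 5 μg/ml; HEPES pH 7.4, 20 mM MgCl2/1 mM MnCl2/200 μM Na3VO4; ATP 25 μM; inhibitor 25 μM, 10 min RT preinc.; 60 min 37 °C on biotin-Poly-Glu4-Tyr; anti-pTyr-HRP chemilum.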

[2] = system: tyrosine kinase in cell membrane fraction of HCC1419; test: as above; assay type: biochemical
Procedure, shortened: as §1

[3] = system: tyrosine kinase in cell membrane fraction of HCC1428; test: as above; assay type: biochemical
Procedure, shortened: as §1

[4] = system: tyrosine kinase in cell membrane fraction of HCC1569; test: as above; assay type: biochemical
Procedure, shortened: as §1

[5] = system: tyrosine kinase in cell membrane fraction of HCC1954; test: as above; assay type: biochemical
Procedure, shortened: as §1

[6] = system: tyrosine kinase in cell membrane fraction of HS578T; test: as above; assay type: biochemical
Procedure, shortened: as §1

[7] = system: tyrosine kinase in cell membrane fraction of MDA-MB-435S; test: as above; assay type: biochemical
Procedure, shortened: as §1

[8] = system: tyrosine kinase in cell membrane fraction of MDA-MB-453; test: as above; assay type: biochemical
Procedure, shortened: as §1

[9] = system: tyrosine kinase in cell membrane fraction of MDA-MB-468; test: as above; assay type: biochemical
Procedure, shortened: as §1

[10] = system: tyrosine kinase in cell membrane fraction of UACC812; test: as above; assay type: biochemical
Procedure, shortened: as §1

[11] = system: tyrosine kinase in cell membrane fraction of UACC893; test: as above; assay type: biochemical
Procedure, shortened: as §1

[12] = system: tyrosine kinase of SK-Br-3; settings: US 2011027809; cited from earlier work
[13] = system: tyrosine kinase of MDA-MB231; settings: US 2011027809; cited from earlier work
tyrosine kinase of MCF7 = settings: US 2011027809; cited from earlier work
tyrosine kinase of T47D = settings: US 2011027809; cited from earlier work
[14] = 25 μM kinase inhibitor, 25 μM ATP

For `COc1cc2ncnc(Nc3ccc(Oc4ccccc4)cc3)c2cc1OC` [Inhibitor 10, 4-(4′-phenoxyanilino)-6,7-dimethoxyquinazoline], the “Example 1 Inhibitory capacity of Src inhibitor” value (shortened to “Example 1 Inhibitory capacity”) [1] was “low (the term “low” means a cell line whose inhibition rate of the Src inhibitor is lower than the threshold value (=43.4%))”, the Inhibition rate [1, 14] was 34.6% and the “Example 1 Inhibitory capacity” value [2] was “low (the term “low” means a cell line whose inhibition rate of the Src inhibitor is lower than the threshold value (=43.4%))”. For the same compound, the Inhibition rate [2, 14] was 36.3%, the “Example 1 Inhibitory capacity” value [3] was “high (the term “high” means a cell line whose inhibition rate of the Src inhibitor is more than the threshold value)” and the Inhibition rate [3, 14] was 43.7%. For the same compound, the “Example 1 Inhibitory capacity” value [4] was “high (the term “high” means a cell line whose inhibition rate of the Src inhibitor is more than the threshold value)”, the Inhibition rate [4, 14] was 71.3% and the “Example 1 Inhibitory capacity” value [5] was “high (the term “high” means a cell line whose inhibition rate of the Src inhibitor is more than the threshold value)”. For the same compound, the Inhibition rate [5, 14] was 46.5%, the “Example 1 Inhibitory capacity” value [6] was “high (the term “high” means a cell line whose inhibition rate of the Src inhibitor is more than the threshold value)” and the Inhibition rate [6, 14] was 58.2%. For the same compound, the “Example 1 Inhibitory capacity” value [7] was “high (the term “high” means a cell line whose inhibition rate of the Src inhibitor is more than the threshold value)”, the Inhibition rate [7, 14] was 44.9% and the “Example 1 Inhibitory capacity” value [8] was “low (the term “low” means a cell line whose inhibition rate of the Src inhibitor is lower than the threshold value (=43.4%))”. For the same compound, the Inhibition rate [8, 14] was 16.3%, the “Example 1 Inhibitory capacity” value [9] was “high (the term “high” means a cell line whose inhibition rate of the Src inhibitor is more than the threshold value)” and the Inhibition rate [9, 14] was 81.0%. The Inhibition rate ([10]; UACC812, 25 μM kinase inhibitor, 25 μM ATP) was 81.5%, the “Example 1 Inhibitory capacity” value ([10]; UACC-812) was “high (the term “high” means a cell line whose inhibition rate of the Src inhibitor is more than the threshold value)” and the Inhibition rate ([11]; UACC893, 25 μM kinase inhibitor, 25 μM ATP) was 25.6%. The “Example 1 Inhibitory capacity” value ([11]; UACC-893) was “low (the term “low” means a cell line whose inhibition rate of the Src inhibitor is lower than the threshold value (=43.4%))”, the “tyrosine kinase activity inhibitory effects caused by the Src inhibitor” value [12] was “high” and the “tyrosine kinase activity inhibitory effects caused by the Src inhibitor” value [13] was “low”. For the same compound, the “tyrosine kinase activity inhibitory effects caused by the Src inhibitor” value (tyrosine kinase of MCF7) was “low” and the “tyrosine kinase activity inhibitory effects caused by the Src inhibitor” value (tyrosine kinase of T47D) was “low”.
